The text below walks through data of ChEMBL document CHEMBL1142967, “Bis-cycloSal-d4T-monophosphates: drugs that deliver two molecules of bioactive nucleotides” (J Med Chem, 2007).

Molecules are shown by their SMILES.

Series [1] concerns Human immunodeficiency virus 2. The experiment in a line: Antiviral activity against H1V2 in TK-deficient CEM cells. It is filed as functional, organism-based, CCRF-CEM.
In the next series the target is Cholinesterase (Homo sapiens, UniProt P06276). Briefly: Inhibition of human serum BChE.
Series [2] has as its system Human immunodeficiency virus 1. The experiment in a line: Antiviral activity against HIV1 in CEM/0 cells. It is filed as functional, organism-based.
The subject of series [3] is Human immunodeficiency virus 2. Briefly: Antiviral activity against H1V2 in CEM/0 cells. It is filed as functional, organism-based.
Series [4] is described as follows: Cytotoxicity against CEM/0 cells. The following applies: human. Type of series: cell-based, CCRF-CEM.
Series [5] in a line: Hydrolytic stability in 25 mM phosphate buffer at pH 7.3, 37 degC. The conditions noted are these: for t1/2: buffer; for half-life: phosphate buffer. Type of series: physicochemical.
Setting [6] is: Human immunodeficiency virus 1, CCRF-CEM.
Where [7] appears, read: Human immunodeficiency virus 2, CCRF-CEM.

Chain of Cholinesterase (P06276 whole entry): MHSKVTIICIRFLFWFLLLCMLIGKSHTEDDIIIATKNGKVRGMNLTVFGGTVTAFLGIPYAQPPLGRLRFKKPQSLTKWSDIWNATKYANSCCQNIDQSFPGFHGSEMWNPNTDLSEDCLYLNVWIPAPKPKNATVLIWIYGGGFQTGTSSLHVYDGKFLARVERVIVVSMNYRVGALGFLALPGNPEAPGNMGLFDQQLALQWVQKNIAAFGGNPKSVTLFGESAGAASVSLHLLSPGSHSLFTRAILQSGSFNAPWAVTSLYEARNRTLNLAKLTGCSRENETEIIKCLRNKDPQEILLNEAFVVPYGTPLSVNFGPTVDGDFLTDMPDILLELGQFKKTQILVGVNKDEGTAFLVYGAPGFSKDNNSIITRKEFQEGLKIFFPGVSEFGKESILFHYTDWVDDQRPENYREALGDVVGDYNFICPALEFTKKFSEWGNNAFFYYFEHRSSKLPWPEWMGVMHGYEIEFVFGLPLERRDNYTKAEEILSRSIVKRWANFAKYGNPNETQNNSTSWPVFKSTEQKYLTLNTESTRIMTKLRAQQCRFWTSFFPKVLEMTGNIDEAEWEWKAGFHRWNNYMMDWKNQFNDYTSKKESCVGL

In the case of `Cc1cn([C@H]2C=C[C@@H](COP3(=O)OCc4cccc(-c5cccc6c5OP(=O)(OC[C@@H]5C=C[C@H](n7cc(C)c(=O)[nH]c7=O)O5)OC6)c4O3)O2)c(=O)[nH]c1=O` (single isomer, unassigned; diastereomer 1), the half-maximal effective concentration (EC50) in series [1] (ccrf-cem) came out at 3330 nM; in series [2] (cem/0), 250 nM; in series [3] (cem/0), 300 nM. This compound also showed an IC50 at Cholinesterase of 14000 nM. Moreover, the CC50 in series [4] (ccrf-cem) was 107000 nM.

In the case of `OCc1cccc(-c2cccc(CO)c2O)c1O`, on Cholinesterase, the IC50 was above 50000 nM. In addition, the EC50 in series [2] (setting [6]) and in series [3] (setting [7]) was above 150000 nM in each case. The CC50 in series [4] (CEM/0 cells) was above 150000 nM.

For `Cc1cn([C@H]2C=C[C@@H](CO)O2)c(=O)[nH]c1=O` [STAVUDINE], the figures for the concentration giving a half-maximal response (EC50) in series [1] (setting [7]), in series [2] (setting [6]) and in series [3] (setting [7]) were 51000 nM, 250 nM and 190 nM, respectively. The compound further came in with a CC50 in series [4] (CEM/0 cells) of 105000 nM.

Regarding `Cc1cn([C@H]2C=C[C@@H](COP3(=O)OCc4cccc(-c5cccc6c5OC(C)(C)OC6)c4O3)O2)c(=O)[nH]c1=O` (stereo in doubt; 33(Rp)), the t1/2 in series [5] was determined as 21 h. For the same compound, the EC50 was 550 nM in series [1] (ccrf-cem) and 360 nM in series [2] (cem/0). The IC50 against Cholinesterase is above 50000 nM. Also, half-maximal cytotoxicity in series [4] (ccrf-cem) (CC50) was put at 55300 nM.

For the compound `Cc1cn([C@H]2C=C[C@@H](COP3(=O)OCc4cccc(-c5cccc6c5OC(C)(C)OC6)c4O3)O2)c(=O)[nH]c1=O` (stereo in doubt; 33(Sp)), the half-life in series [5] is 14 h. Also, the values for the EC50 in series [1] (ccrf-cem), in series [2] (setting [6]) and in series [3] (setting [7]) were 3000 nM, 500 nM and 400 nM, respectively. On Cholinesterase, this compound registered an IC50 of 3600 nM. Also, in series [4] (CEM/0 cells), the CC50 was determined as 89300 nM.

Take `Cc1cn([C@H]2C=C[C@@H](COP3(=O)OCc4cccc(-c5cccc(CO)c5O)c4O3)O2)c(=O)[nH]c1=O` (stereo in doubt; 29(Rp)): the t1/2 in series [5] worked out at 1.4 h. For the same compound, the EC50 was 700 nM in series [1] (ccrf-cem), 270 nM in series [2] (cem/0) and 500 nM in series [3] (cem/0). In addition, the IC50 against Cholinesterase was above 50000 nM. In series [4] (ccrf-cem), this compound came in with a CC50 of 69400 nM.

`Cc1cc2c(c(-c3cc(C)cc4c3OP(=O)(OC[C@@H]3C=C[C@H](n5cc(C)c(=O)[nH]c5=O)O3)OC4)c1)OP(=O)(OC[C@@H]1C=C[C@H](n3cc(C)c(=O)[nH]c3=O)O1)OC2` (stereo not given in full) had a half-life in series [5] of 12 h. For the same compound, the EC50 is 1600 nM in series [1] (setting [7]), 370 nM in series [2] (setting [6]) and 410 nM in series [3] (setting [7]). The IC50 against Cholinesterase is above 50000 nM. In series [4] (CEM/0 cells), this compound registered a CC50 of 67100 nM.

Regarding `Cc1cn([C@H]2C=C[C@@H](COP3(=O)OCc4cccc(-c5cccc(CO)c5O)c4O3)O2)c(=O)[nH]c1=O` (stereo in doubt; 29), the t1/2 in series [5] stood at 1.3 h. Besides, the midpoint of inhibition against Cholinesterase, the IC50, lay at 2300 nM.

In series [5], `Cc1cn([C@H]2C=C[C@@H](COP3(=O)OCc4cccc(-c5ccccc5)c4O3)O2)c(=O)[nH]c1=O` (stereo not given in full) had a half-life of 5.1 h. The EC50 in series [1] (setting [7]) worked out at 280 nM; in series [2] (setting [6]), 130 nM; in series [3] (setting [7]), 270 nM. In addition, at Cholinesterase, the half-inhibitory concentration (IC50) stood at 350 nM. For the same compound, in series [4] (CEM/0 cells), the CC50 was determined as 22000 nM.

With `Cc1cn([C@H]2C=C[C@@H](COP(=O)(O)OCc3cccc(-c4cccc5c4OP(=O)(OC[C@@H]4C=C[C@H](n6cc(C)c(=O)[nH]c6=O)O4)OC5)c3O)O2)c(=O)[nH]c1=O` (stereo not given in full), the midpoint of inhibition against Cholinesterase, the IC50, lay at 2300 nM.

In the case of `Cc1cn([C@H]2C=C[C@@H](COP3(=O)OCc4cccc(-c5cccc(CO)c5O)c4O3)O2)c(=O)[nH]c1=O` (stereo in doubt; 29(Sp)), in series [5], the half-life was 1.1 h. In addition, the values for the 50% effective concentration (EC50) in series [1] (ccrf-cem), in series [2] (setting [6]) and in series [3] (setting [7]) were 1500 nM, 340 nM and 400 nM, respectively. In addition, at Cholinesterase, it took 790 nM to reach half-maximal inhibition (IC50). Also, the cytotoxic concentration (CC50) in series [4] (CEM/0 cells) is 78700 nM.

Regarding `Cc1cn([C@H]2C=C[C@@H](COP3(=O)OCc4cccc(-c5cccc6c5OP(=O)(OC[C@@H]5C=C[C@H](n7cc(C)c(=O)[nH]c7=O)O5)OC6)c4O3)O2)c(=O)[nH]c1=O` (single isomer, unassigned; diastereomer 2), the EC50 in series [1] (ccrf-cem) was found to be 2370 nM; in series [2] (cem/0) it was 210 nM; in series [3] (cem/0) it was 220 nM. Moreover, the IC50 against Cholinesterase was above 50000 nM. The same compound gave a CC50 in series [4] (ccrf-cem) of 90700 nM.

On Cholinesterase, `Cc1cc(CO)c(O)c(-c2cc(C)cc(CO)c2O)c1` had a 50% inhibitory concentration (IC50) above 50000 nM. The EC50 in series [2] (setting [6]) and in series [3] (setting [7]) was above 150000 nM each time. In series [4] (CEM/0 cells), the CC50 is above 150000 nM.

Take `Cc1cn([C@H]2C=C[C@@H](COP3(=O)OCc4cccc(-c5cccc6c5OP(=O)(OC[C@@H]5C=C[C@H](n7cc(C)c(=O)[nH]c7=O)O5)OC6)c4O3)O2)c(=O)[nH]c1=O` (stereo in doubt; 6): the EC50 in series [1] (setting [7]) worked out at 2330 nM; in series [2] (setting [6]), 190 nM; in series [3] (setting [7]), 270 nM. Besides, at Cholinesterase, it took 40000 nM to reach half-maximal inhibition (IC50). Further, the CC50 in series [4] (ccrf-cem) is 27800 nM.

`Cc1cn([C@H]2C=C[C@@H](COP3(=O)OCc4cccc(-c5cccc6c5OC(C)(C)OC6)c4O3)O2)c(=O)[nH]c1=O` (stereo in doubt; 33) showed a t1/2 in series [5] of 16 h. Moreover, the EC50 amounted to 1070 nM in series [1] (ccrf-cem) and 350 nM in series [2] (cem/0). This compound displayed an IC50 against Cholinesterase of 4700 nM. In series [4] (ccrf-cem), this compound had a CC50 of 65000 nM.

What is called EC50 is the concentration at which the effect is half-maximal. Lower therefore signals an effect from little substance. In general, IC50 refers to the midpoint of a concentration-inhibition curve. Low values mean greater potency in that assay, high ones weaker potency in that assay. As usually defined, the CC50 is the concentration giving 50% cytotoxicity. A higher CC50 goes with lower toxicity to the cells. Broadly, the half-life is the time in which the quantity being followed falls by half.
